Data from the NIST ThermoML archive (doi:10.1016/j.jct.2019.01.027).
Numbers after ± are expanded uncertainties. Values belong to the molecule of their own block, whether it stands above or below them.

Details: Liquid, Ebulliometric method (Recirculating still)

Structure (SMILES): Cc1ccc(C)cc1 [1,4-dimethylbenzene]
vapor or sublimation pressure (411.45 K): 101.3 ± 1.2 kPa

vapor or sublimation pressure (389.55 K): 101.3 ± 1.2 kPa
Structure (SMILES): CC(=O)OCC(C)C [2-methylpropyl ethanoate]

vapor or sublimation pressure (418.35 K): 101.3 ± 1.2 kPa
Structure (SMILES): CCCCOC(=O)CC [butyl propanoate]

vapor or sublimation pressure (363.35 K): 101.3 ± 1.2 kPa
Structure (SMILES): COC(=O)OC [dimethyl carbonate]

vapor or sublimation pressure (351.45 K): 101.3 ± 1.2 kPa
Structure (SMILES): CCO [ethanol]
